From BindingDB's records for doi:10.1016/j.bmcl.2010.03.073 (Methylgene, 2010) come the findings set out here.

A word on the IC50: it is the midpoint of a concentration-inhibition curve. Low values mean higher potency, high ones lower potency.

Experiment [1] can be described thus: Inhibition of c-Met-mediated scattering in HGF-stimulated human DU145 cells.
A short description of experiment [2]: Inhibition of c-Met-mediated cell migration of human A549 cells by would healing.

SMILES strings stand for the structures.

Consider `Cn1cnc(-c2cc3nccc(Oc4ccc(NC(=O)c5cnn(-c6ccccc6)c5C(F)(F)F)cc4F)c3s2)c1` [N-(3-fluoro-4-(2-(1-methyl-1H-imidazol-4-yl)thieno[3,2-b]pyridin-7-yloxy)phenyl)-1-phenyl-5-(trifluoromethyl)-1H-pyrazole-4-carboxamide], for which the IC50 amounted to 2 µM in experiment [1] and 0.4 µM in experiment [2].
